Results from patent publication US20240100076A1, “METHODS AND COMPOSITIONS FOR TREATING NEURODEGENERATIVE DISEASES” (Augusta University Research Institute, Inc., priority 2021, published 2024).
Entries after “also recorded” stand apart in the source; their conditions may differ.

Tests used:
[1] = target: T1, aSyn (Homo sapiens, UniProt P37840, A53T); assay: aSyn levels in A53T PD mouse brain after intranasal gangliosides; format: in vivo; conditions: intranasal 5 mg/kg/day for 28 days, 8-month-old A53T PD mice
T1 construct: tissue The Jackson Laboratory 006823; host or cells: brain / substantia nigra of A53T PD transgenic mice
Method: (§1) The acquisition, care, and experimental treatment of animals used in this study were in compliance with the NIH guidelines as published in the Guide for the Care and Use of Laboratory Animals. Gangliosides (GD3 or GM1; 5 mg/kg/day) were infused intranasally (Hanson, et al., J. Vis. Exp. (74) (2013) doi.org/10.3791/4440.) with a small pipette (each […] into the right and left nares twice, or […] per day) into 8-month-old WT (C57B6/J), A53T PD, and GM2S-KO mice daily for 7-28 days. GD3 and GM1 used in this study were isolated from either bovine buttermilk or brains by established procedures (Ariga, et al., J. Biol. Chem. 269, 2667-2675 (1994), Ledeen and Yu, Methods Enzymol. 83, 139-191 (1982), Ren, et al., J. Biol. Chem. 267, 12632-12638 (1992)). Gangliosides, being amphipathic, were easily dissolved in saline. The placebo group received saline infusions. At first, to provide direct evidence for ganglioside administration into brain, mice totally deficient in GM1 (8-month-old GM2S-KO mice) were intranasally administered GM1 (0.5 or 5 mg/kg/day) for 7 days. Brain-delivered GM1 was analyzed by immunohistochemistry and TLC. After confirmation that ganglioside reached the brain of GM2S-KO mice by the intranasal route, 8-month-old A53T PD mice were utilized for ganglioside treatments (28 days). […]

[2] = system: VDAC1; assay: VDAC1 expression in PD mouse brain; format: in vivo; conditions: intranasal 5 mg/kg/day for 28 days
Method: as §1

[3] = system: hippocampal NSC (Sox2 positive cell); assay: SOX2 positive NSCs in hippocampus of PD mouse brain; format: in vivo; conditions: intranasal 5 mg/kg/day for 28 days (combination: GD3 2 weeks, then GM1 2 weeks)
Method: as §1

[4] = system: 5XFAD mice; assay: Novel object recognition test in 5XFAD mice; format: in vivo, mouse; conditions: intranasal 5 mg/kg/day for 8 weeks (combination: GD3 4 weeks, GM1 4 weeks), 2-month-old 5XFAD mice, n=3
Method: FIGS. 9A and 9B illustrate the memory function of intranasal ganglioside treatments. FIG. 9A is a schematic diagram showing the experimental procedure of novel object recognition test. […] Each mouse was placed in an arena, with two identical objects placed at each end of the arena. After 5 min of investigation, mice were returned to their home cage. 24 hours later, one test object was replaced with a novel object, and animals were allowed 5 min for investigation. The time spent exploring each object was recorded. Percentages of exploration time of novel object (memory) are shown in the columns (n=3).
Gangliosides (5 mg/kg/day), GD3, GM1, or GD3-GM1 (GD3 for 4 weeks and GM1 for 4 week) were administered into 2-month-old 5XFAD mice for 8 weeks. To assess the effect of intranasal ganglioside treatment on cognitive function, mice were tested using the novel object recognition test (FIG. 9A). […] These findings indicate that intranasal ganglioside has an important role to enhance hippocampal-dependent learning and memory.

[5] = system: 5XFAD mice; assay: Buried pellet test (olfactory function) in 5XFAD mice; format: in vivo, mouse; conditions: intranasal 5 mg/kg/day for 8 weeks (combination: GD3 4 weeks, GM1 4 weeks), n=3
Method: To detect olfaction deficiency, the buried pellet test was assessed (FIG. 10A). Bedding tips were set to 3 cm height. The time until mice uncover the food pellet was measured. […] It is believed that GD3 maintains stemness and inhibits further neuronal differentiation such as olfactory neurons. […] The buried pellet test, which relies on the animal's natural tendency to use olfactory cues for foraging, is used to confirm ability to smell (FIG. 10A). The time until mice uncover the food pellet in bedding tips was measured. […] Thus, GD3 has important role in olfactory function (FIG. 12).

[6] = system: 5XFAD mice; assay: Whole-body dual-energy X-ray absorptiometry (DXA) in 5XFAD mice; format: in vivo, mouse; conditions: intranasal, 8 weeks (combination 4 + 4 weeks)
Method: Bone loss often accelerates with neurodegenerative diseases and during aging. Protecting from bone loss would be complementary to treatments for neurodegenerative diseases. Body composition analyses were measured by dual-energy X-ray absorptiometry (DXA; Kubtec Digimus, KUB Technologies, Stratford, CT, USA). Bone area (cm2), Bone mineral content (BMC, grams) and bone mineral density (BMD, g/cm2) were calculated for the whole body (FIGS. 11A-11C) using the manufacturer's analysis software (Kubtec Digimus). […] Increasing bone density in patients with neurodegenerative diseases, would decrease risk of fracture and increase the quality of life.

[7] = system: NSC pools in DG and SVZ; conditions: icv by micro-osmotic pump, 5 mg/kg/day for 7 days, GD3S-KO mouse; cited from earlier work
[8] = system: 5XFAD mouse brain; conditions: icv 5 mg/kg/day for 7 days; cited from earlier work
[9] = system: tyrosine hydroxylase (TH); assay: TH expression at substantia nigra in PD mouse brain; format: in vivo; conditions: intranasal 5 mg/kg/day for 28 days
Method: as §1

[10] = system: Nurr1; assay: Expression and nuclear localization of Nurr1 in substantia nigra pars compacta of A53T PD mouse; format: in vivo; conditions: intranasal 5 mg/kg/day for 28 days
Method: as §1

[11] = system: GM2S; assay: GM2S gene expression in PD mouse brain; format: in vivo; conditions: intranasal 5 mg/kg/day for 28 days
Method: as §1

[12] = system: TH; assay: TH expression in substantia nigra of GM2S-KO mouse; format: in vivo; conditions: intranasal 5 mg/kg/day for 28 days, 8 months old GM2S-KO mouse
Method: as §1

[13] = system: Neuro 2a cells; assay: TH mRNA expression in Neuro 2a cells (qPCR); format: cell-based, mouse; conditions: 5 mM ganglioside, 24 h
Method: (§2) Mouse Neuro-2a neuroblastoma cells (ATCC, Manassas, VA, USA, CCL-131) were maintained in Dulbecco's modified Eagle's medium supplemented with 10% fetal bovine serum, 2 mM glutamine, and penicillin/streptomycin at 37° C., 5% CO2.
Total RNA samples were isolated from substantia nigra of mouse brains or cultured Neuro 2a cells using TRIzol reagent (Life Technologies from Thermo Fisher Scientific). Neuro 2a cells were untreated or treated with 5 mM GD3 or GM1 in B27-supplemented Neuro-basal-A medium for 24 h. cDNAs were synthesized based on the total RNAs as templates using MultiScribe reverse transcriptase (Applied Biosystems, Waltham, MA, USA). qPCR was performed with run RT2 SYBR Green qPCR master mix (QIAGEN, Hilden, Germany) on the CFX96 system (Bio-Rad, Hercules, CA, USA). The relative expression levels of TH were normalized to the actin transcript level. The normalized value from control (WT+saline, or no treated cells) is defined as 1.0. The following primers were used: TH forward, 5′-CACTATGCCCACCCCCAG-3′ (SEQ ID NO:1), reverse: 5′-CGCCGTCCAATGAACCTT-3′ (SEQ ID NO:2); actin forward, 5′-[…]-3′ (SEQ ID NO:3), reverse, 5′-[…]-3′ (SEQ ID NO:4).

[14] = system: TH gene promoter; assay: ChIP assay on TH gene promoter in Neuro 2a cells; format: cell-based, mouse; conditions: 5 mM ganglioside, 24 h
Method: as §2
ChIP assays were performed on cell lysates as previously described.31,32,76 Briefly, Neuro 2a cells, untreated or treated with 5 mM GD3 or GM1 for 24 h, were incubated in 1% PFA for 10 min at ambient temperature to crosslink the interacting partners. Cells with the cross-linked complexes were subjected to lysis by sonication with six 20-s pulses at the power scale 7 controlled by a sonicator (Sonic dismembrator model 100, Fisher Scientific). After centrifugation at 15,000×g for 10 min, the supernatants were collected for the following experiments. Immunoprecipitation was carried out with the following specific antibodies bound on protein G-conjugated magnetic beads (Millipore): anti-acetylated histone H3 (Millipore), anti-Nurr1 (R&D Systems), or anti-PITX3 (Thermo Fisher Scientific) antibodies. The amounts of the co-precipitated DNA fragments of TH promoter (+0), the Nurr1 binding site on the TH promoter (TH-NBS), and the PITX3 binding site on TH promoter (TH-PBS) were analyzed by qPCR. After normalization against GAPDH, the value of no treated cells was defined as 1.0. The following primers were used: TH forward, 5′-[…]-3′ (SEQ ID NO:5), reverse, 5′-[…]-3′ (SEQ ID NO:6); TH NBS forward, 5′-[…]-3′ (SEQ ID NO:7), reverse, 5′-[…]-3′ (SEQ ID NO:8); TH PBS forward, 5′-[…]-3′ (SEQ ID NO:9), reverse, 5′-[…]-3′ (SEQ ID NO:10); GAPDH forward, 5′-[…]-3′ (SEQ ID NO:11), reverse, 5′-TCAGTTCGGAG CCCACACGC-3′ (SEQ ID NO:12).

Row | Substance | aSyn levels / aSyn accumulation [1] | VDAC1 expression [2] | hippocampal NSC (Sox2 positive cell) number [3] | memory function (exploration time of novel object) [4] | olfactory function (time to uncover the food pellet) [5] | bone area [6] | bone mineral content [6] | bone mineral density [6] | NSC pools in DG and SVZ [7] | SOX2-expressing cells in DG [8] | TH expression at substantia nigra [9] | expression and nuclear localization of Nurr1 [10] | expression of GM2S [11] | TH expression in substantia nigra of GM2S-KO mouse [12] | TH expression (mRNA) [13] | acetylated histone H3 on TH gene promoter (ChIP) ([14]; anti-AcH3) | recruitment of Nurr1 on the TH promoter region (ChIP) ([14]; anti-Nurr1) | recruitment of Pitx3 on the TH promoter (ChIP) ([14]; anti-Pitx3) | BrdU+/doublecortin+ (DCX+) newly generated immature neurons [8]
1 | monosialodihexosylganglioside [GD3] | partially inhibits | significantly enhance the expression | partially restored hippocampal NSC (Sox2 positive cell) number | increased memory function | could not enhance olfactory function | increased | increased | increased | augments NSC pools in DG and SVZ | augments self-renewal and multipotent marker, SOX2-expressing cells | – | – | – | – | – | – | – | – | –
2 | monosialotetrahexosylganglioside [GM1] | strongly inhibits; also recorded: reduced aSyn levels | significantly enhance the expression | – | increased memory function | enhance olfactory function | increased | increased | increased | – | – | dramatically restored TH expression | restored | promoted expression of GM2S | restore the normal TH expression | dramatically increased the TH expression | augmentation of acetylated histone H3 | remarkably recruited | also recruited Pitx3 | increases BrdU+/doublecortin+ (DCX+) newly generated immature neurons
